Patent US10092515B2, “Liposomal formulations of polymyxin B and uses thereof” (University of Houston System, priority 2012, dated 2018)

Legend:
[1] = tested on: P. aeruginosa ATCC 27853 (PA 27853); conditions: PA 27853, previously determined; cited from earlier work
[2] = Onset of nephrotoxicity (serum creatinine >=2-fold baseline) at escalating daily doses; type: in vivo, Sprague-Dawley rats; conditions: rats
Description: Female Sprague-Dawley rats (225 to 250 g) (Harlan, Indianapolis, Ind.) were used. The rats received food and water ad libitum. All animals were cared for in accordance with the highest humane and ethical standards, as approved by the Institutional Animal Care and Use Committee (IACUC) of the University of Houston. The jugular veins of selected animals were cannulated to facilitate intravenous drug administration.
Prior to each experiment, polymyxin B for injection (USP) was reconstituted with sterile water for injection (USP) and diluted to achieve the desired concentration. The reconstituted drug solution was stored at −80° C. in aliquots and thawed immediately before dosing.
To mimic a clinical course of polymyxin B treatment, three groups of rats (n=13 each) were administered escalating dose levels of polymyxin B (5 mg/kg, 10 mg/kg, and 20 mg/kg, respectively) once daily subcutaneously for up to 7 days. Blood samples (approximately 200 μl) were drawn via the tail vein at baseline and on a daily basis (before dosing when applicable). Blood was allowed to clot on ice, and serum was separated by centrifugation at 4,000×g for 10 min. Serum samples (100 μl) were further assayed for creatinine levels by use of a clinical chemistry analyzer (Piccolo Xpress; Abaxis, Inc., Union City, Calif.). A significant elevation in serum creatinine (≥2-fold […] the baseline level) was set as the endpoint for nephrotoxicity. Kaplan-Meier survival analysis and a log rank (Mantel-Cox) test were used to compare the times of onset of nephrotoxicity among various groups. Right censoring was used if the nephrotoxicity endpoint was not observed by day 7.

[3] = Polymyxin B pharmacokinetics in megalin-shedding rats (serum and renal tissue); type: in vivo, Sprague-Dawley rats; conditions: for AUC0-∞, renal tissue/AUC0-∞, serum ratio / AUC0-∞, renal tissue / AUC0-∞, serum / renal tissue polymyxin B concentration (3 h postdosing): rats, 3 mg/kg IV
Method: (§1) A validated ultraperformance liquid chromatography-tandem mass spectrometry (UPLC/MS-MS) method was modified to determine the concentrations of polymyxin B in rat serum and renal tissues, as previously described (32). The lower limit of quantification (LLOQ) was 50 ng/ml for all the major components of polymyxin B in serum as well as the renal tissue homogenate.
To study the impact of sodium maleate pretreatment on systemic/renal exposure of polymyxin B, the rats were divided into two groups (n=13 each). Animals in both control and experimental groups were administered a single intravenous dose of 3 mg/kg of polymyxin B sulfate (USP). The intravenous route of polymyxin B administration was preferred to avoid any interference with drug absorption at the injection site. In addition, the animals in the experimental group were given 400 mg/kg of sodium maleate intraperitoneally 3 to 6 h prior to polymyxin B administration. Serum samples were obtained at 1.5, 3, 4.5, 6, and 7.5 h after polymyxin B dosing. In addition, the rats were sacrificed to harvest the kidneys at 3, 6, and 24 h (n=3 at each time point) postdosing. Polymyxin B concentrations in serum and renal tissue samples were assayed by the validated UPLC-MS/MS method detailed above.
The mean concentrations of polymyxin B in serum, as well as in renal tissue samples, at each time point were used. A modified two-compartment model (data not shown) was used to cofit the serum/renal tissue concentration-time profiles using ADAPT 5 (University of Southern California, Los Angeles, Calif.). Using the best-fit parameters, the AUC0-∞ was estimated by integrating instantaneous concentrations with respect to time. The AUC0-∞, renal tissue/AUC0-∞, serum ratio was used as an index to quantitatively assess preferential accumulation of polymyxin B in renal tissue.
To further examine whether the effect of sodium maleate on the renal accumulation of polymyxin B is transient, three additional rats were given a single dose of 400 mg/kg of sodium maleate intraperitoneally. Two weeks later, the animals were given a single dose of 3 mg/kg of polymyxin B intravenously. The rats were sacrificed at 3 h postdosing; kidneys were harvested and homogenized. Polymyxin B concentrations in renal tissue samples were assayed by the validated UPLC-MS/MS method.

[4] = tested on: multiple drug resistant (MDR) Pseudomonas aeruginosa strain (PA 9019); conditions: PA 9019, previously determined; cited from earlier work
[5] = Renal tissue concentration of polymyxin B at escalating dose levels; type: in vivo, Sprague-Dawley rats; conditions: rats, 24 h after first dose, summed components
Method: as §1
To determine the renal tissue concentration of polymyxin B, three rats from each dosing group were randomly selected and sacrificed at 24 h after the first dose; kidneys were harvested and homogenized. A fixed time point was selected to avoid any potential confounding due to different cumulative doses received when nephrotoxocity was observed. The concentrations of the major components of polymyxin B (polymyxin B1, polymyxin B2, polymyxin B3, and isoleucine polymyxin B1) were determined in […] as described above.
For the purpose of drug quantification in the renal tissue homogenates, the estimated concentrations were divided by the total weight of the kidney and the final concentrations were expressed per gram of renal tissue (in micrograms/gram). The summed concentrations of individual components were used to estimate the overall renal drug exposure (33). One-way analysis of variance (ANOVA) and then post hoc Tukey's test were used to compare the mean renal tissue concentrations among the dosing groups, and P values of <0.05 were considered significant.

[6] = experimental group: 400 mg/kg sodium maleate i.p. 3 to 6 h before

## Polymyxin B
[1]
  minimum inhibitory concentration (MIC): 2 µg/mL
[2]; 5 mg/kg once daily subcutaneously up to 7 days
  animals that reached the predefined nephrotoxicity endpoint by day 7: none
[2]; 10 mg/kg daily subcutaneously
  animals that reached the nephrotoxicity endpoint within the first 48 h of treatment: 1 out of 10
[2]; 20 mg/kg daily subcutaneously
  animals that reached the nephrotoxicity endpoint within the first 48 h of treatment: 8 out of 10
[2]; 20 mg/kg once daily subcutaneously up to 7 days
  animals that reached the predefined nephrotoxicity endpoint (serum creatinine >=2-fold baseline): 10 out of 10
[3]; megalin-shedding rats vs control
  attenuation of polymyxin B exposure in renal tissue after pretreatment with maleate: approximately 40%
[3]; control group
  AUC0-∞, renal tissue/AUC0-∞, serum ratio: 19.1
[3]; control group (no maleate)
  AUC0-∞, renal tissue: 211900 ng·h/mL
  AUC0-∞, serum: 10400 ng·h/mL
[3]; control rats
  renal tissue polymyxin B concentration (3 h postdosing): 11.45 µg/g
[3]; experimental group (maleate pretreatment)
  AUC0-∞, renal tissue/AUC0-∞, serum ratio: 11.6
[3]; [6]
  AUC0-∞, renal tissue: 121000 ng·h/mL
  AUC0-∞, serum: 11100 ng·h/mL
[3]; sodium maleate 400 mg/kg given 2 weeks earlier
  renal tissue polymyxin B concentration (3 h postdosing): 11.08 µg/g
[4]
  minimum inhibitory concentration (MIC): 4 µg/mL
[5]; 5-mg/kg dosing group
  concentration of polymyxin B in renal tissue: 3.6 ± 0.4 µg/g
[5]; 10-mg/kg dosing group
  concentration of polymyxin B in renal tissue: 9.9 ± 1.5 µg/g
[5]; 20-mg/kg dosing group
  concentration of polymyxin B in renal tissue: 21.7 ± 4.8 µg/g
